Measured values taken from patent US8338472B2, “Hexahydrocyclopentyl[F]indazole carboxamides and derivatives thereof as selective glucocorticoid receptor modulators” (Merck Sharp & Dohme Corp., priority 2008, dated 2012).
Where two headings read alike, the source gives them in different places.

Legend:
Glucocorticoid Receptor = molecular target: T1, Glucocorticoid Receptor (Homo sapiens, UniProt P04150); test: Trans-Activation Modulation of Glucocorticoid Receptor (GRAMMER), MMTV-LUC reporter gene in A549 cells; type: cell-based; settings: Table 1; for Emax: A549, A549 cells, read-out: Transactivation A549 Cells GRAMMER Emax; for EC50: inflection point, read-out: Transactivation A549 Cells GRAMMER IP
T1 construct: These cells express large amount of the GR and are very responsive to GC treatment; endogenous in cells; host or cells: A549 cells transiently transfected with the MMTV-LUC reporter
T1 sequence (P04150 1-777): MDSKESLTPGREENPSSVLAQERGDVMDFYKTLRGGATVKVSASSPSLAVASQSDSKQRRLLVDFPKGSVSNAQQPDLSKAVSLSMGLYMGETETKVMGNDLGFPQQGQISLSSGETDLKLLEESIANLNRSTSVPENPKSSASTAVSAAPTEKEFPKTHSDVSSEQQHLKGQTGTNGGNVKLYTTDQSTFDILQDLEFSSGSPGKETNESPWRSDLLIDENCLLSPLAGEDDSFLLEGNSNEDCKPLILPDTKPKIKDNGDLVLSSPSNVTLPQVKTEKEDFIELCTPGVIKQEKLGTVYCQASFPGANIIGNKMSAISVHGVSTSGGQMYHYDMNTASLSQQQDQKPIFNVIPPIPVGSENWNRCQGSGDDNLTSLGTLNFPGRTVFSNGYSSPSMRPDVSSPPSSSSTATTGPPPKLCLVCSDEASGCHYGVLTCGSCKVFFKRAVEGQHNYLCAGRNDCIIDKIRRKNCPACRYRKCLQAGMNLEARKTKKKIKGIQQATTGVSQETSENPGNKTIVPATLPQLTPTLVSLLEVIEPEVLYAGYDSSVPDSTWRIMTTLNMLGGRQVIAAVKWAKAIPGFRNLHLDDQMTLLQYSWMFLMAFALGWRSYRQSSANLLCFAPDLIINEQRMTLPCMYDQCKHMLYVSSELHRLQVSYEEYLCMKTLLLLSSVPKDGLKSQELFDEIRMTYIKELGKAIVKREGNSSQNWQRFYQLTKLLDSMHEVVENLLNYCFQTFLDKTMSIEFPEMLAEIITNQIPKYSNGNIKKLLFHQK
In short: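 Luciferase from a transiently transfected MMTV-LUC reporter was measured after 24 h compound exposure (≤1% DMSO) in A549 or MDA-MB-453 cells. For antagonism, the decrease of 10 nM dexamethasone-induced signal was calculated. For agonism, Emax was referenced to 300 nM dexamethasone.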

[1] = molecular target: T2, glucocorticoid receptor (GR) (Homo sapiens, UniProt P04150); test: Ligand binding assay (GR BIND), 3H-dexamethasone displacement in MDA-MB-453 cell lysate; settings: GR BIND Ki, Table 1
T2 sequence (P04150 1-777): T1 sequence (P04150 1-777)

human GR = molecular target: T3, human GR (Homo sapiens, UniProt P04150); test: Transrepression Assay (GITAR), TNFα-β-lactamase reporter gene in U937 cells; type: cell-based; settings: for GITAR Greater than by GRAMMER % SEP: GITAR Emax minus GRAMMER Emax; for EC50: inflection point, U937 cells, read-out: Transrepression U937 Cells GITAR IP
T3 construct: U937 cells contain an endogenous glucocorticoid receptor (GR); endogenous in cells; host or cells: U937 cells stably transfected with the TNF-alpha promoter/beta-lactamase reporter
T3 sequence (P04150 1-777): T1 sequence (P04150 1-777)
In short: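 Repression of PMA (5 ng/ml final)/LPS (100 ng/ml final)-induced TNF-α promoter activity, read as β-lactamase cleavage of CCF2-AM, in stably transfected U937 cells expressing native GR. Compound added 30-45 min before stimulation, overnight (~18 hr) 37° C; normalized to 100 nM dexamethasone (100%).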

[2] = Emax relative to 300 nM dexamethasone
[3] = U-937, U937 cells, activity repressed by 100 nM dexamethasone = 100%, Table 1, read-out: Transrepression U937 Cells GITAR Emax
[4] = U-937, text statement, 100 nM dexamethasone = 100%, read-out: maximal activity in the transrepression assay (GITAR)

Compound | Emax (Glucocorticoid Receptor; [2]) | EC50 (Glucocorticoid Receptor; A549 cells) | Ki [1] | GITAR Greater than by GRAMMER % SEP (human GR; Table 1) | Emax (human GR; [3]) | Emax (human GR; [4]) | EC50 (human GR; Table 1) | Transactivation A549 Cells GRAMMER Emax (Glucocorticoid Receptor; A549 cells, Emax relative to 300 nM dexamethasone)
CN(C(=O)[C@H]1CCC2=Cc3c(cnn3-c3ccc(F)cc3)C[C@@]21C)C1CCCCC1 [Compound 44, (4αR,5S)-N-cyclohexyl-1-(4-fluorophenyl)-N,4α-dimethyl-1,4,4α,5,6,7-hexahydrocyclopenta[f]indazole-5-carboxamide] | 3.2% | 0.398 µM | 0.0232 µM | 35.3% | 38.5% | > 5% | 1.81 µM | 
CN(CC(O)C(F)(F)F)C(=O)[C@H]1CCC2=Cc3c(cnn3-c3ccc(F)cc3)C[C@@]21C (stereo partly drawn) [Compound 70, (4αR,5S)-1-(4-fluorophenyl)-N,4α-dimethyl-N-(3,3,3-trifluoro-2-hydroxypropyl)-1,4,4α,5,6,7-hexahydrocyclopenta[f]indazole-5-carboxamide] | 62.5% | 0.231 µM | 0.0107 µM | 24.5% | 86.9% | > 5% | 0.277 µM | 
C[C@]12Cc3cnn(-c4ccc(F)cc4)c3C=C1CC[C@@H]2C(=O)Nc1ccccc1 [Compound 6, (4αR,5S)-1-(4-fluorophenyl)-4α-methyl-N-phenyl-1,4,4α,5,6,7-hexahydrocyclopenta[f]indazole-5-carboxamide] | 1.3% | 0.133 µM | 0.0194 µM | 11.5% | 12.8% | > 5% | 0.0009 µM | 
COC[C@H]1CCCN1C(=O)[C@H]1CCC2=Cc3c(cnn3-c3ccc(F)cc3)C[C@@]21C [Compound 43, (4αR,5S)-1-(4-fluorophenyl)-5-{[(2R)-2-(methoxymethyl)pyrrolidin-1-yl]carbonyl}-4α-methyl-1,4,4α,5,6,7-hexahydrocyclopenta[f]indazole] | 1.5% | 5 µM | 0.0498 µM | 19.5% | 21% | > 5% | 0.385 µM | 
CO[C@H](C)CN(C)C(=O)[C@H]1CCC2=Cc3c(cnn3-c3ccc(F)cc3)C[C@@]21C [Compound 89, (4αR,5S)-1-(4-fluorophenyl)-N-[(2R)-2-methoxypropyl]-N,4α-dimethyl-1,4,4α,5,6,7-hexahydrocyclopenta[f]indazole-5-carboxamide] | 3.7% | 0.492 µM | 0.12 µM | 6.5% | 10.2% | > 5% | 3.45 µM | 
CC(O)CN(CC(C)O)C(=O)[C@H]1CCC2=Cc3c(cnn3-c3ccc(F)cc3)C[C@@]21C (stereo partly drawn) [Compound 10, (4αR,5S)-1-(4-fluorophenyl)-N,N-bis(2-hydroxypropyl)-4α-methyl-1,4,4α,5,6,7-hexahydrocyclopenta[f]indazole-5-carboxamide] | 40.8% | 0.326 µM | 0.0018 µM | 19.0% | 59.8% | > 5% | 0.384 µM | 
CN(CC(O)C(F)(F)F)C(=O)[C@H]1CCC2=Cc3c(cnn3-c3ccccc3)C[C@@]21C (stereo partly drawn) [Compound 74, (4αR,5S)-N,4α-dimethy1-1-phenyl-N-(3,3,3-trifluoro-2-hydroxypropyl)-1,4,4α,5,6,7-hexahydrocyclopenta[f]indazole-5-carboxamide] |  | 0.276 µM | 0.0106 µM | 35.1% | 73.9% | > 5% | 0.381 µM | 38.8%
CCN(CC)C(=O)[C@H]1CCC2=Cc3c(cnn3-c3ccc(F)cc3)C[C@@]21C [Compound 55, (4αR,5S)-N,N-diethyl-1-(4-fluorophenyl)-4α-methyl-1,4,4α,5,6,7-hexahydrocyclopenta[f]indazole-5-carboxamide] | 1.6% | 5 µM | 0.0535 µM | 22.3% | 23.9% | > 5% | 3.95 µM | 
CCCN(C(=O)[C@H]1CCC2=Cc3c(cnn3-c3ccc(F)cc3)C[C@@]21C)C(C)CC (stereo partly drawn) [Compound 16, (4αR,5S)-N-(sec-butyl)-1-(4-fluorophenyl)-4α-methyl-N-propyl-1,4,4α,5,6,7-hexahydrocyclopenta[f]indazole-5-carboxamide] | 33.8% | 0.184 µM | 0.0028 µM | 28.1% | 61.8% | > 5% | 0.376 µM | 
CC1CC(C)CN(C(=O)[C@H]2CCC3=Cc4c(cnn4-c4ccc(F)cc4)C[C@@]32C)C1 (stereo partly drawn) [Compound 53, (4αR,5S)-5-[(3,5-dimethylpiperidin-1-yl)carbonyl]-1-(4-fluorophenyl)-4α-methyl-1,4,4α,5,6,7-hexahydrocyclopenta[f]indazole] | 18.3% | 2.29 µM | 0.0374 µM | 40.2% | 58.4% | > 5% | 2.25 µM | 
C[C@]12Cc3cnn(-c4ccc(F)cc4)c3C=C1CC[C@@H]2C(=O)N1CCC(S(=O)(=O)c2ccccc2)CC1 [Compound 51, (4αR,5S)-1-(4-fluorophenyl)-4α-methyl-5-{[4-(phenylsulfonyl)piperidin-1-yl]carbonyl}1,4,4α,5,6,7-hexahydrocyclopenta[f]indazole] | 2.9% | 1.19 µM | 0.0395 µM | 32.2% | 35.1% | > 5% | 1.38 µM | 
Cc1ccc(CCN(CC(O)C(F)(F)F)C(=O)[C@H]2CCC3=Cc4c(cnn4-c4ccc(F)cc4)C[C@@]32C)cc1 (stereo partly drawn) [Compound 82, (4αR,5S)-1-(4-fluorophenyl)-4α-methyl-N-[2-(4-methylphenyl)ethyl]-N-(3,3,3-trifluoro-2-hydroxypropyl)-1,4,4α,5,6,7-hexahydrocyclopenta[f]indazole-5-carboxamide] | 10.3% | 0.274 µM | 0.0009 µM | 32.8% | 43.1% | > 5% | 0.362 µM | 
CCCCN(CC=O)C(=O)[C@H]1CCC2=Cc3c(cnn3-c3ccc(F)cc3)C[C@@]21C [Compound 39, (4αR,5S)-N-butyl-1-(4-fluorophenyl)-4α-methyl-N-(2-oxoethyl)-1,4,4α,5 ,6,7-hexahydrocyclopenta[f]indazole-5-carboxamide] | 27% | 0.535 µM | 0.0044 µM | 67.4% | 94.3% | > 5% | 0.125 µM | 
